Measured values taken from US20250154686A1, “COMPOUND LIBRARY” (CHUGAI SEIYAKU KABUSHIKI KAISHA, priority 2021, published 2025).

Molecular target: T1, Bcl-2 protein (Recombinant Human Bcl-2 Protein) (Homo sapiens, UniProt P10415)
T1 construct: purchased Novus Biologicals NBP2-34889
Assay: AS-MS evaluation of binding of the Example 4 mixture library (1200 compounds/well) to Bcl-2, ASMS ratio (%)
How it was run: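 Affinity-selection MS: after spin-column size exclusion and organic extraction, LC/MS signals give an ASMS ratio (%), referenced to protein-free samples with and without column treatment. Binding step combined 20 μM human Bcl-2 with the 1200-compound pool at 20 nM per compound, 1 h, 23° C., dark, pH 7.4 Tris-HCl/NaCl/Tween-20/DTT.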

[1] = replicate n = 1, mixture library, value belongs to the MS peak assigned to the compound
[2] = replicate n = 2, mixture library, value belongs to the MS peak assigned to the compound
[3] = AS-MS, mixture of 1200 compounds/well, Bcl-2 protein, replicate n = 2
[4] = AS-MS, Example 4 mixture library, Bcl-2, replicate n = 1
[5] = AS-MS, Example 4 mixture library, Bcl-2, replicate n = 2
[6] = AS-MS, mixture of 1200 compounds/well, Bcl-2 protein, replicate n = 1

T1 sequence (P10415 whole entry): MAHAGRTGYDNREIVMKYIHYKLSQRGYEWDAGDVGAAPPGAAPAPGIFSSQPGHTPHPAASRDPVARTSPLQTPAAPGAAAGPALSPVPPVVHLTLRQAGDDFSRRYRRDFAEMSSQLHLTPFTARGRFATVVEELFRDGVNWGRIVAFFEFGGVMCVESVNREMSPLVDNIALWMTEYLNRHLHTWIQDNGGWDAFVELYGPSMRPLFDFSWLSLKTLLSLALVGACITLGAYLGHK

Row | Compound | ASMS ratio (%) n = 1 [4] [%] | ASMS ratio (%) n = 2 [5] [%] | further results
1 | CCOc1cncc(-c2cc(C(=O)N3CCN(c4ccc(C(=O)NS(=O)(=O)C(C)(C)C)nn4)CC3)cc(C(C)(C)C)c2)c1 [Compound B2L016-01, 6-[4-[3-tert-Butyl-5-(5-ethoxypyridin-3-yl)benzoyl]piperazin-1-yl]-N-tert-butylsulfonylpyridazine-3-carboxamide] |  |  | ASMS ratio (%) n = 1 [1]: 0.0%; ASMS ratio (%) n = 2 [2]: −5.4%
2 | CCCNC(=O)c1ccc(N2CCN(C(=O)c3cncc(C#Cc4cccc(OCC)c4)c3)CC2)nn1 [Compound B1M009-01] |  |  | ASMS ratio (%) n = 2 [3]: 0.0%
3 | CCOc1cncc(C#Cc2ccccc2C(=O)N2CCN(c3ccc(C(=O)NS(=O)(=O)CCC(F)(F)F)cc3)CC2)c1 [Compound B2N030-01, 4-[4-[2-[2-(5-Ethoxypyridin-3-yl)ethynyl]benzoyl]piperazin-1-yl]-N-(3,3,3-trifluoropropylsulfonyl)benzamide] | 0.0 | 0.0 | 
4 | CCOc1cncc(C#Cc2cc(C(=O)N3CCN(c4ccc(C(=O)N(C)CC56CC7CC(CC(C7)C5)C6)nn4)CC3)cc(C(F)(F)F)c2)c1 [Compound B3A020-01, N-(1-Adamantylmethyl)-6-[4-[3-[2-(5-ethoxypyridin-3-yl)ethynyl]-5-(trifluoromethyl)benzoyl]piperazin-1-yl]-N-methylpyridazine-3-carboxamide] |  |  | ASMS ratio (%) n = 1 [6]: 7.5%; ASMS ratio (%) n = 2 [3]: −3.2%
5 | CCOc1cccc(-c2cnn(-c3cc(C(=O)N4CCN(c5ccc(C(=O)NS(=O)(=O)c6ccc(NCCSc7ccccc7)c(C(F)(F)F)c6)cc5)CC4)cc(C(F)(F)F)c3)c2)c1 [Compound B2R043-01, 4-[4-[3-[4-(3-Ethoxyphenyl)pyrazol-1-yl]-5-(trifluoromethyl)benzoyl]piperazin-1-yl]-N-[4-(2-phenylsulfanylethylamino)-3-(trifluoromethyl)phenyl]sulfonylbenzamide] | 3.4 | −9.0 | 
6 | CCOc1cccc(-c2cc(C(=O)N3CCN(c4ccc(C(=O)NS(=O)(=O)c5ccc(NCCSc6ccccc6)c(C(F)(F)F)c5)cc4)CC3)cc(C(C)(C)C)c2)c1 [Compound B2R037-01, 4-[4-[3-tert-Butyl-5-(3-ethoxyphenyl)benzoyl]piperazin-1-yl]-N-[4-(2-phenylsulfanylethylamino)-3-(trifluoromethyl)phenyl]sulfonylbenzamide] | 6.3 | −7.0 | 
7 | CCOc1cncc(-c2cc(C(=O)N3CCN(c4ccc(C(=O)NCC56CC7CC(CC(C7)C5)C6)nn4)CC3)cc(C(C)(C)C)c2)c1 [Compound B1A016-01, N-(1-Adamantylmethyl)-6-[4-[3-tert-butyl-5-(5-ethoxypyridin-3-yl)benzoyl]piperazin-1-yl]pyridazine-3-carboxamide] |  |  | ASMS ratio (%) n = 2 (mixture library of 1200 compounds/well, Bcl-2 protein, replicate n = 2, compounds assigned by expected m/z): −4. %
8 | CCOc1cccc(-c2cc(CN3CCN(c4ccc(C(=O)NS(=O)(=O)c5ccc(NCCSc6ccccc6)c(C(F)(F)F)c5)nn4)CC3)cc(OCC)c2)c1 [Compound B2R081-01] | 21.1 | −8.8 | 
9 | CCOc1cncc(-c2ccc(C(=O)N3CCN(c4ccc(C(=O)NS(=O)(=O)c5ccc(NCCSc6ccccc6)c(C(F)(F)F)c5)cc4)CC3)c3ccccc23)c1 [Compound B2R036-01, 4-[4-[4-(5-Ethoxypyridin-3-yl)naphthalene-1-carbonyl]piperazin-1-yl]-N-[4-(2-phenylsulfanylethylamino)-3-(trifluoromethyl)phenyl]sulfonylbenzamide] | 3.2 | −0.8 | 
10 | CCOc1cncc(-c2cc(OC)c(CN3CCN(c4ccc(C(=O)NS(C)(=O)=O)cc4)CC3)c(OC)c2)c1 [Compound B2I060-01, 4-[4-[[4-(5-Ethoxypyridin-3-yl)-2,6-dimethoxyphenyl]methyl]piperazin-1-yl]-N-methylsulfonylbenzamide] |  |  | ASMS ratio (%) n = 1 [1]: 0.0%; ASMS ratio (%) n = 2 [2]: 0.0%
11 | CCOc1cncc(-c2cc(C(=O)N3CCN(c4ccc(C(=O)NS(=O)(=O)CCC(F)(F)F)cc4)CC3)cc(C(F)(F)F)c2)c1 [Compound B2N040-01, 4-[4-[3-(5-Ethoxypyridin-3-yl)-5-(trifluoromethyl)benzoyl]piperazin-1-yl]-N-(3,3,3-trifluoropropylsulfonyl)benzamide] | 0.0 | 0.0 | 
12 | 4-[4-[[4-(3-Ethoxyphenyl)-3-fluorophenyl]methyl]piperazin-1-yl]-N-propylbenzamide [Compound B1M079-01] |  |  | ASMS ratio (%) n = 1 [6]: 8.1%
13 | CCOc1cncc(-c2ccc(C(=O)N3CCN(c4ccc(C(=O)NS(=O)(=O)C(C)(C)C)cc4)CC3)cc2F)c1 [Compound B2L028-01, N-tert-Butylsulfonyl-4-[4-[4-(5-ethoxypyridin-3-yl)-3-fluorobenzoyl]piperazin-1-yl]benzamide] |  |  | ASMS ratio (%) n = 1 [1]: 0.0%; ASMS ratio (%) n = 2 [2]: 0.0%
14 | CCOc1cccc(-c2ccccc2CN2CCN(c3ccc(C(=O)NS(=O)(=O)CCC(F)(F)F)nn3)CC2)c1 [Compound B2N071-01, 6-[4-[[2-(3-Ethoxyphenyl)phenyl]methyl]piperazin-1-yl]-N-(3,3,3-trifluoropropylsulfonyl)pyridazine-3-carboxamide] | 0.0 | 0.0 | 
15 | 4-[4-[[4-(5-Ethoxypyridin-3-yl)-2-ethylphenyl]methyl]piperazin-1-yl]-N-propylbenzamide [Compound B1M075-01] |  |  | ASMS ratio (%) n = 1 [6]: 77.3%; ASMS ratio (%) n = 2 [3]: 46.1%
16 | CCOc1cncc(-c2cc(OC)c(CN3CCN(c4ccc(C(=O)NS(=O)(=O)CCC(F)(F)F)cc4)CC3)c(OC)c2)c1 [Compound B2N060-01, 4-[4-[[4-(5-Ethoxypyridin-3-yl)-2,6-dimethoxyphenyl]methyl]piperazin-1-yl]-N-(3,3,3-trifluoropropylsulfonyl)benzamide] | 0.0 | 0.0 | 
17 | CCOc1cncc(-c2cc(CN3CCN(c4ccc(C(=O)NS(=O)(=O)c5ccc(NCCSc6ccccc6)c(C(F)(F)F)c5)cc4)CC3)cc(OC(C)C)c2)c1 [Compound B2R058-01, 4-[4-[[3-(5-Ethoxypyridin-3-yl)-5-propan-2-yloxyphenyl]methyl]piperazin-1-yl]-N-[4-(2-phenylsulfanylethylamino)-3-(trifluoromethyl)phenyl]sulfonylbenzamide] | 13.0 | 4.8 | 
18 | CCOc1cccc(C#Cc2ccccc2C(=O)N2CCN(c3ccc(C(=O)NS(=O)(=O)CCC(F)(F)F)nn3)CC2)c1 [Compound B2N007-01, 6-[4-[2-[2-(3-Ethoxyphenyl)ethynyl]benzoyl]piperazin-1-yl]-N-(3,3,3-trifluoropropylsulfonyl)pyridazine-3-carboxamide] | 0.0 | 0.0 | 
19 | CCOc1cccc(-c2ccc(C(=O)N3CCN(c4ccc(C(=O)NS(=O)(=O)CCC(F)(F)F)cc4)CC3)cc2C)c1 [Compound B2N025-01, 4-[4-[4-(3-Ethoxyphenyl)-3-methylbenzoyl]piperazin-1-yl]-N-(3,3,3-trifluoropropylsulfonyl)benzamide] | 0.0 | 0.0 | 
20 | CCOc1cccc(-c2cc(CN3CCN(c4ccc(C(=O)NS(=O)(=O)c5ccc(NCCSc6ccccc6)c(C(F)(F)F)c5)nn4)CC3)cc(OC(F)(F)F)c2)c1 [Compound B2R089-01, 6-[4-[[3-(3-Ethoxyphenyl)-5-(trifluoromethoxy)phenyl]methyl]piperazin-1-yl]-N-[4-(2-phenylsulfanylethylamino)-3-(trifluoromethyl)phenyl]sulfonylpyridazine-3-carboxamide] | 3.4 | −9.2 | 
21 | CCOc1cccc(-c2cc(OC)c(CN3CCN(c4ccc(C(=O)NS(=O)(=O)c5ccc(NCCSc6ccccc6)c(C(F)(F)F)c5)cc4)CC3)c(OC)c2)c1 [Compound B2R059-01, 4-[4-[[4-(3-Ethoxyphenyl)-2,6-dimethoxyphenyl]methyl]piperazin-1-yl]-N-[4-(2-phenylsulfanylethylamino)-3-(trifluoromethyl)phenyl]sulfonylbenzamide] | 0.0 | 0.0 | 
22 | CCOc1cncc(-c2cc(CN3CCN(c4ccc(C(=O)NS(=O)(=O)c5ccc(NCCSc6ccccc6)c(C(F)(F)F)c5)nn4)CC3)cc(OC(F)(F)F)c2)c1 [Compound B2R090-01, 6-[4-[[3-(5-Ethoxypyridin-3-yl)-5-(trifluoromethoxy)phenyl]methyl]piperazin-1-yl]-N-[4-(2-phenylsulfanylethylamino)-3-(trifluoromethyl)phenyl]sulfonylpyridazine-3-carboxamide] | 22.4 | 5.3 | 
23 | CCOc1cncc(-c2ccc(C(=O)N3CCN(c4ccc(C(=O)N(CC)CC)nn4)CC3)cc2F)c1 [Compound B4J006-01, 6-[4-[4-(5-Ethoxypyridin-3-yl)-3-fluorobenzoyl]piperazin-1-yl]-N,N-diethylpyridazine-3-carboxamide] |  |  | ASMS ratio (%) n = 1 (Example 4 mixture library, 1200 compounds/well, Bcl-2 protein, replicate n = 1, value belongs to the MS peak assignable to the compound): 0.0%; ASMS ratio (%) n = 2 (Example 4 mixture library, 1200 compounds/well, Bcl-2 protein, replicate n = 2, value belongs to the MS peak assignable to the compound): 0.0%
24 | CCOc1cccc(-c2ccc(C(=O)N3CCN(c4ccc(C(=O)NS(=O)(=O)c5ccc(NCCSc6ccccc6)c(C(F)(F)F)c5)nn4)CC3)cc2C)c1 [Compound B2R003-01, 6-[4-[4-(3-Ethoxyphenyl)-3-methylbenzoyl]piperazin-1-yl]-N-[4-(2-phenylsulfanylethylamino)-3-(trifluoromethyl)phenyl]sulfonylpyridazine-3-carboxamide] | 21.6 | 0.0 | 
